Reference: PMC7828111, “In Search for Multi-Target Ligands as Potential Agents for Diabetes Mellitus and Its Complications—A Structure-Activity Relationship Study on Inhibitors of Aldose Reductase and Protein Tyrosine Phosphatase 1B” (Molecules, 2021)

Columns and labels:
[1] = target: T1, human recombinant PTP1B (Homo sapiens, UniProt P18031); experiment: Inhibition of human recombinant PTP1B, p-nitrophenyl phosphate as substrate; type: biochemical; details: for IC50: human recombinant PTP1B, mean ± S.E.M; for IC50 / remaining activity at 50 µM: pNPP as substrate; for remaining activity at 50 µM: residual activity, read-out: PTP1B % enzyme residual activity at the indicated concentration
T1 sequence (P18031 1-435): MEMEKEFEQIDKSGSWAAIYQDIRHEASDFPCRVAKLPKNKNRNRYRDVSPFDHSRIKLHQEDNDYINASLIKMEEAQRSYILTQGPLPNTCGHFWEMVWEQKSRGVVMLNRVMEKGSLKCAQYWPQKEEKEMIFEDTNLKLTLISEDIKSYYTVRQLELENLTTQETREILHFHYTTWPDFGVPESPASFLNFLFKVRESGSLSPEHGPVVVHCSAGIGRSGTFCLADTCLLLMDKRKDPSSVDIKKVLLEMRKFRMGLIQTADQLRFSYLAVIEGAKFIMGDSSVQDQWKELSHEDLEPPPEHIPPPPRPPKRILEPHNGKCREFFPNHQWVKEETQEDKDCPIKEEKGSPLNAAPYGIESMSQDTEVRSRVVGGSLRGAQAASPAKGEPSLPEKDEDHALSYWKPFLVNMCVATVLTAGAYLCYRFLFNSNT
Experimental: PTP1B activity was determined as follow. […] After an appropriate interval time, the reaction was stopped diluting assay solution with 2 mL of KOH 0.1 M. The amount of p-nitrophenol released was determined measuring the absorbance of the solution at 400 nm using a spectrophotometer and a 1-cm optical pathlength (εmM of p-nitrophenol is 18). The IC50 value was determined measuring the pNPP hydrolysis rate in the presence of increasing inhibitor concentration. For each inhibitor, 15–16 different concentrations were used. All tests were carried out in triplicate and data obtained were normalized respect to control sample.

[2] = target: T2, human recombinant AR (Homo sapiens, UniProt P15121); experiment: Inhibition of human recombinant AR, L-idose as substrate (NADPH oxidation at 340 nm); type: biochemical; details: for Inhibition of human AR (in words): at concentrations up to 10 μM; for IC50: human recombinant AR, 2 mM L-idose as substrate, mean ± S.E.M; for AR inhibitory potency relative to the corresponding acetic acid analogues 1, 2: less potent than acetic acid analogue, analogue data ref 5
T2 construct: made in house; host or cells: E. coli BL21(DE3)pLysS
Experimental: The human recombinant AR was expressed in BL21(DE3)pLysS E. coli cells and purified to electrophoretic homogeneity as previously described. The purified enzyme (specific activity 5.0 U/mg) was stored at −80 °C in 10 mM sodium phosphate buffer pH 7.0 containing 2 mM dithiothreitol and 30% (w/v) glycerol. AR activity was determined at 37 °C as previously described evaluating the decrease in absorbance at 340 nm linked to NADPH oxidation. […] One unit of enzyme activity is the amount that catalyzes the conversion of 1 μmol of substrate/min in the above assay conditions.
All compounds tested as aldose reductase inhibitors were dissolved in DMSO and added to the assay mixture containing 8 mU of purified AR. The reaction was started by addition of the substrate. The DMSO concentration in all the assays was kept constant at 0.5% (v/v) in order to avoid effects on AR activity.
The IC50 values were determined by nonlinear regression analysis using Prism GraphPad 6.0 fitting experimental data to the following equation:(1) vi/v0= Max−Min/1+( I/IC50)^slope +Min
In the equation, vi/v0, represents the ratio between the activity measured in the presence of the inhibitor and the activity measured in the absence of inhibitor; Max and Min represent the expected maximal and minimal value of the activity and were fixed at 1 and zero, respectively. Slope, which describes the steepness of curve in the transition region, was fixed at −1. For each compound, at least five different concentrations of inhibitor in the triplicate assay were analyzed.

[3] = tested on: bovine lens AR; design: method as in PMID 15781392; details: glyceraldehyde as substrate; cited from earlier work
[4] = target: T2, human recombinant AR; experiment: Kinetic analysis of AR inhibition (Lineweaver-Burk and secondary plots); type: biochemical
Experimental: The kinetic analysis of compounds 4a, 4e and 4f was performed by measuring reaction rates with different L-idose concentrations s (S) in the absence and in the presence of different inhibitors concentrations. Data were analyzed by Linewever-Burk plots.

[5] = target: T2, human recombinant AR; experiment: Reversibility of AR inhibition (dialysis); type: biochemical
Experimental: In order to evaluate the reversibility of the inhibitory action, 8 mU of purified AR were assayed in the presence of 5 μM of compounds 4a, 4e and 4f. In these conditions less than 15% of the enzyme activity was measured in the presence of 2 mM L-idose as substrate. The mixture was then extensively dialysed on Amicon ultrafiltration membrane (cut off 10 KDa) against 10 mM sodium phosphate buffer, pH 7.0. After dialysis, the enzyme activity was again measured as above and compared to that of a mixture in the absence of inhibitor and treated in the same conditions.

[6] = target: T1, human recombinant PTP1B; experiment: Reversibility assay (dilution test) with PTP1B; type: biochemical; details: saturating inhibitor, 60 min 37 °C, diluted 400 folds
Experimental: An aliquot of the enzyme was incubated for 60 min at 37 °C in the presence of saturating amount of PTP1B inhibitor. After this time, an aliquot of the enzyme was withdrawn and diluted 400 folds in the assay buffer containing 2.5 mM of pNPP. After 15 min, the reaction was stopped by adding 1 mL of KOH 0.2 M. The amount of pNP released was calculating measuring the absorbance at 400 nm of solutions using a spectrophotometer. Data obtained were normalized respect to control tests, which was carried out diluting the enzyme with DMSO, the solvent used to dissolve all compounds. Data reported in the figure represent the mean value +/− S.E.M. (n = 3).

[7] = target: T1, human recombinant PTP1B; experiment: Kinetic analysis of PTP1B inhibition (Lineweaver-Burk plot); type: biochemical; details: pNPP as substrate
Experimental: Kinetic analyses were carried out to dissect action mechanism of compound 4e and 4f. Briefly, the main kinetic parameters, Km and Vmax, were calculated measuring the initial hydrolysis rate of PTP1B in the presence of increasing pNPP concentration (seven different concentrations in the 0.5–25 mM range). All assays were carried out in duplicate. Data obtained were fitted using the Michaelis-Menten equation. To evaluate the action mechanism of inhibitors, we studied the dependence of Km and Vmax from inhibitors concentration, using three different inhibitor concentrations, at least. Data obtained were then analysed by double reciprocal plot (Lineweaver-Burk plot).

[8] = residual activity, L-idose as substrate, read-out: AR % enzyme residual activity at the indicated concentration

SMILES	IC50 [1] [µM]	remaining activity at 50 µM [1] [%]	melting point [°C]	IC50 [2] [µM]	also measured
O=C(O)CCN1C(=O)S/C(=C\c2cccc(Oc3ccccc3)c2)C1=O [3a, 3-{(5Z)-[2,4-Dioxo-5-(3-phenoxyphenyl)methylidene]thiazolidin-3-yl}propanoic acid]	–	79	177 to 180	11.9 ± 0.9	–
O=C(O)CCN1C(=O)S/C(=C\c2cccc(OCCc3ccccc3)c2)C1=O [3e, 3-[(5Z)-2,4-Dioxo-{5-[3-(2-phenylethoxy)phenyl]methylidene}thiazolidin-3-yl]propanoic acid]	–	64	130 to 133	27.9 ± 3.1	AR inhibitory potency relative to the corresponding acetic acid analogues 1, 2 [2]: two orders of magnitude higher
O=C(O)CCN1C(=O)/C(=C/c2cccc(Oc3ccccc3)c2)SC1=S [4a, 3-{(5Z)[4-Oxo-5-(3-phenoxyphenyl)methylidene-2-thioxothiazolidin-3-yl]}propanoic acid]	34.1 ± 0.5	–	–	2.2 ± 0.1	AR Ki relative to K′i ([4]; Ki higher than K′i): approximately 4 fold; AR K′i (apparent dissociation constant, EIS complex) ([4]; L-idose as substrate): 1.4 ± 0.022 µM; Mechanism of AR inhibition ([4]; L-idose as substrate): mixed-type inhibition; Ki ([4]; L-idose as substrate, read-out: AR Ki (apparent dissociation constant)): 5 ± 0.57 µM; AR enzyme activity recovered after removal of the inhibitor upon extensive dialysis ([5]; 5 μM compound before dialysis): more than 90%; AR enzyme activity measured in the presence of compound ([5]; 5 μM compound, 2 mM L-idose, before dialysis): less than 15%; Reversibility of PTP1B inhibition [6]: reversible inhibitors; Mechanism of PTP1B inhibition [7]: mixed-type non-competitive inhibitors; PTP1B K′i (apparent dissociation constant, EIS complex) [7]: 68.9 ± 1.5 µM; Ki ([7]; read-out: PTP1B Ki (apparent dissociation constant)): 10.6 ± 1.7 µM
O=C(O)CCN1C(=O)/C(=C/c2cccc(OCc3ccccc3)c2)SC1=S [4c, 3-{(5Z)-5-[(3-Benzyloxyphenyl)methylidene]-4-oxo-2-thioxothiazolidin-3-yl}propanoic acid]	42.8 ± 0.7	–	–	3.8 ± 0.1	–
O=C(O)CCN1C(=O)S/C(=C\c2cccc(OCc3ccccc3)c2)C1=O [3c, 3-{(5Z)-[5-(3-Benzyloxyphenyl)methylidene]-2,4-dioxothiazolidin-3-yl}propanoic acid]	–	76	142 to 145	14.3 ± 1	–
O=C(O)CCN1C(=O)/C(=C/c2ccc(OCc3ccccc3)cc2)SC1=S [4d, 3-{(5Z)-5-[(4-Benzyloxyphenyl)methylidene]-4-oxo-2-thioxothiazolidin-3-yl}propanoic acid]	34.9 ± 0.7	–	170 to 173	8.4 ± 0.7	–

The next lines start with results.

IC50 [1] [µM]	remaining activity at 50 µM [1] [%]	melting point [°C]	IC50 [2] [µM]	SMILES	also measured
34.8 ± 0.5	–	–	–	O=C(O)C=CCN1C(=O)SC(=Cc2ccc(-c3ccccc3)cc2)C1=O [5c]	remaining activity at 5 µM ([2]; at 5 µM, residual activity, L-idose as substrate, read-out: AR % enzyme residual activity at the indicated concentration): 88%; Inhibition of human AR (in words) ([2]; L-idose as substrate): scarce inhibition; Inhibitory activity towards bovine lens AR [3]: almost inactive
42.1 ± 0.3	–	–	3.9 ± 0.2	O=C(O)C=CCN1C(=O)SC(=Cc2cccc(Oc3ccccc3)c2)C1=O [5a]	Inhibitory activity towards bovine lens AR [3]: very scarce inhibitory activity
39.7 ± 0.1	–	–	–	O=C(O)C=CCN1C(=O)SC(=Cc2ccc(Oc3ccccc3)cc2)C1=O [5b]	remaining activity at 10 µM [2, 8]: 84%; Inhibition of human AR (in words) ([2]; L-idose as substrate): scarce inhibition; Inhibitory activity towards bovine lens AR [3]: almost inactive
29.5 ± 0.4	–	218 to 219	7.6 ± 0.6	O=C(O)CCN1C(=O)/C(=C/c2ccc(Oc3ccccc3)cc2)SC1=S [4b, 3-{(5Z)[4-Oxo-5-(4-phenoxyphenyl)methylidene-2-thioxothiazolidin-3-yl]}propanoic acid]	–
–	56	198 to 202	43.8 ± 7.1	O=C(O)CCN1C(=O)S/C(=C\c2ccc(Oc3ccccc3)cc2)C1=O [3b, 3-{(5Z)-[2,4-Dioxo-5-(4-phenoxyphenyl)methylidene]thiazolidin-3-yl}propanoic acid]	–
–	77	195 to 199	35.7 ± 3	O=C(O)CCN1C(=O)S/C(=C\c2ccc(OCc3ccccc3)cc2)C1=O [3d, 3-{(5Z)-[5-(4-Benzyloxyphenyl)methylidene]-2,4-dioxothiazolidin-3-yl}propanoic acid]	Inhibition of human PTP1B by virtual screening hit (in words) ([1]; in vitro evaluation of selected virtual hits, previously conducted): moderate capability to inhibit
–	46	160 to 163	50.2 ± 4.6	O=C(O)CCN1C(=O)S/C(=C\c2ccc(OCCc3ccccc3)cc2)C1=O [3f, 3-[(5Z)-2,4-Dioxo-{5-[4-(2-phenylethoxy)phenyl]methylidene}thiazolidin-3-yl]propanoic acid]	AR inhibitory potency relative to the corresponding acetic acid analogues 1, 2 [2]: two orders of magnitude higher
40.3 ± 0.5	–	170 to 172	3.7 ± 0.2	O=C(O)C=CCN1C(=O)SC(=Cc2cccc3ccccc23)C1=O [5d, 4-{(5Z)-[5-(1-Naphtylmethylidene)-2,4-dioxothiazolidin-3-yl]}-2-butenoic acid]	–
37.1 ± 0.4	–	235 to 238	–	O=C(O)C=CCN1C(=O)SC(=Cc2ccc3ccccc3c2)C1=O [5e, 4-{(5Z)-[5-(2-Naphtylmethylidene)-2,4-dioxothiazolidin-3-yl]}-2-butenoic acid]	remaining activity at 10 µM [2, 8]: 86%; Inhibition of human AR (in words) ([2]; L-idose as substrate): scarce inhibition
